In PubChem BioAssay (NCI):
Values joined by “and” are separate entries in the source; they are usually repeats but may differ in a detail not shown here. Identical values can stand only once.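 Exposure lasted 48 hours, with cells grown in 96-well plates and compounds tested at five concentrations. GI50 is the concentration that inhibits growth by half. Definition used: TGI = concentration required for complete inhibition of growth.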

Key:
Experiment in all cases: growth of human tumour cells (NCI), 48 h
SW-620 colon = tested on: SW-620 colon
ACHN renal = tested on: ACHN renal
NCI-H23 lung = tested on: NCI-H23 lung
RXF 393 renal = tested on: RXF 393 renal
HCT-116 colon = tested on: HCT-116 colon
SK-OV-3 ovarian = tested on: SK-OV-3 ovarian
CAKI-1 renal = tested on: CAKI-1 renal
NCI/ADR-RES ovarian = tested on: NCI/ADR-RES ovarian
UACC-257 melanoma = tested on: UACC-257 melanoma
T-47D breast = tested on: T-47D breast

Row | SMILES | GI50 (SW-620 colon) [µM] | TGI (SW-620 colon) [µM] | GI50 (ACHN renal) [µM] | TGI (ACHN renal) | GI50 (NCI-H23 lung) [µM] | TGI (NCI-H23 lung) | GI50 (RXF 393 renal) | TGI (RXF 393 renal) | GI50 (HCT-116 colon) [µM] | TGI (HCT-116 colon) [µM] | GI50 (SK-OV-3 ovarian) [µM] | TGI (SK-OV-3 ovarian) [µM] | GI50 (CAKI-1 renal) [µM] | TGI (CAKI-1 renal) [µM] | GI50 (NCI/ADR-RES ovarian) [µM] | TGI (NCI/ADR-RES ovarian) [µM] | TGI (UACC-257 melanoma) [µM] | GI50 (UACC-257 melanoma) [µM] | GI50 (T-47D breast) [µM] | TGI (T-47D breast) [µM]
1 | Nc1nc(N)c2cc(S(=O)(=O)c3cccc(C(F)(F)F)c3)ccc2n1 | 0.989 | > 100 | 4.43 | > 100 µM | 3.63 | > 100 µM | 3.8 µM | 57.8 µM | 1.47 | > 100 | 14.8 | > 100 | > 100 | > 100 | 7.79 | > 100 |  |  |  | 
2 | O=C1CN=C(c2ccccc2)c2ccncc2N1 |  | > 100 |  | > 100 µM |  | > 100 µM |  | > 100 µM |  | > 100 |  | > 100 |  | > 100 |  |  | 72.5 |  |  | 
3 | CN(N=O)C(=O)NC(CCCCNC(=O)OCc1ccccc1)C(=O)OCc1ccccc1 (stereo unspecified) |  | > 100 |  | 32.3 µM |  | 51.3 µM |  | 61.8 µM |  | > 100 |  | > 100 |  | 52.8 |  |  | 33.5 |  |  | 
4 | CCOP(=O)(OCC)C(C(=O)OC)C(=O)C(=O)Nc1cccc([N+](=O)[O-])c1 (stereo unspecified) |  | > 100 |  | > 100 µM |  | > 100 µM |  | > 100 µM |  | > 100 |  | > 100 |  | > 100 |  |  | > 100 |  |  | 
5 | c1ccc2[nH]c(-c3ccc(Nc4nc(N5CCCC5)nc5[nH]ncc45)cc3)nc2c1 | 0.211 | 0.486 | 0.347 | 1.07 µM | 0.808 | 2.7 µM | 0.814 µM | 2.27 µM | 0.203 | 0.473 | 2.55 | 4.87 | 1.83 | 3.48 | 0.392 | 1.47 | 0.632 | 0.229 |  | 
6 | COc1ccc(C(O)C(c2ccc(OCc3ccccc3)cc2)c2ccc(OCc3ccccc3)cc2)cc1 (stereo unspecified) |  | > 100 |  | > 100 µM |  | > 100 µM |  | > 100 µM |  | > 100 |  | > 100 |  | > 100 |  |  |  |  |  | 
7 | O=S(=O)(c1ccccc1)N1CCC1c1ccccc1 (stereo unspecified) |  | > 100 |  | > 100 µM |  | > 100 µM |  | > 100 µM |  | > 100 |  | > 100 |  |  |  |  | > 100 |  |  | 
8 | C=CCn1c(SCC(=O)Nc2ccc(C(=O)/C=C/c3cc(OC)c(OC)c(OC)c3)cc2)nnc1-c1cc(OC)c(OC)c(OC)c1 | 3.37 | 16 | 4.16 | 20.6 µM | 3.41 | 26 µM | 2.16 µM | 4.65 µM | 2.09 | 5.12 | 5.08 | 21.2 |  |  | 15.3 | > 100 | 36 | 7.45 | 5.44 | 40.7
9 | Cc1cc(C)c2c(c1)CSCc1cc(C)cc(C)c1-2 |  | > 100 |  | > 100 µM |  | > 100 µM |  | 65.3 µM |  | 60.5 |  | > 100 |  | 76.8 |  |  | 74.1 |  |  | 
10 | O=[N+]([O-])c1ccc(Cl)c(C2CC(c3cccc4ccccc34)=Nc3ccccc3S2=O)c1 (stereo unspecified) |  | 33.5 |  | 52.9 µM |  | 17.4 µM |  | 21.1 µM |  | 35.1 |  | > 100 |  | > 69.8 |  |  | > 86.4 |  |  | 
11 | CCOc1ccc2c(c1)[n+]([O-])c(C(N)=O)c(N)[n+]2[O-] |  | > 100 |  | > 100 µM |  | > 100 µM |  | > 100 µM |  | > 100 |  | > 100 |  | > 100 |  |  | > 100 |  |  | 
12 | COc1ccc2c(c1)c(-c1ccc(-c3cn(C)c4ccc(OC)cc34)s1)cn2C | > 100 | > 100 | > 100 | > 100 µM | > 100 | > 100 µM | > 100 µM | > 100 µM | > 100 | > 100 | > 100 | > 100 | > 100 | > 100 | > 100 | > 100 | > 100 | > 100 |  | 
13 | O=C(O)c1ccccc1NS(=O)(=O)c1ccc(Cl)cc1 |  | > 100 |  | > 100 µM |  | > 100 µM |  | > 100 µM |  | > 100 |  | > 100 |  | > 100 |  |  | > 100 |  |  | 
14 | CC1COS(=O)N1c1ccccc1 (stereo unspecified) |  | > 100 |  | > 100 µM |  | > 100 µM |  | > 100 µM |  |  |  | > 100 |  |  |  |  | > 100 |  |  | 
15 | NCCNCCNCc1c2ccccc2c(CNCCNCCN)c2ccccc12 |  | > 100 |  | > 100 µM |  | > 100 µM |  | > 100 µM |  | > 100 |  | > 100 |  | > 100 |  |  | > 100 |  |  | 
16 | O=C(c1ccccc1)[C@H]1Nc2ccc(Cl)cc2[C@H]2c3ccccc3O[C@H]21 |  | 31.2 |  | 28.7 µM |  | 28.1 µM |  | 22.4 µM |  | 34.3 |  |  |  | 29.1 |  |  | 8.48 |  |  | 

Row | SMILES | GI50 (SW-620 colon) [µM] | TGI (SW-620 colon) [µM] | GI50 (ACHN renal) [µM] | TGI (ACHN renal) | GI50 (NCI-H23 lung) [µM] | TGI (NCI-H23 lung) | GI50 (RXF 393 renal) | TGI (RXF 393 renal) | GI50 (HCT-116 colon) [µM] | TGI (HCT-116 colon) [µM] | GI50 (SK-OV-3 ovarian) [µM] | TGI (SK-OV-3 ovarian) [µM] | GI50 (CAKI-1 renal) [µM] | TGI (CAKI-1 renal) [µM] | GI50 (NCI/ADR-RES ovarian) [µM] | TGI (NCI/ADR-RES ovarian) [µM] | TGI (UACC-257 melanoma) [µM] | GI50 (UACC-257 melanoma) [µM] | GI50 (T-47D breast) [µM] | TGI (T-47D breast) [µM]
17 | [O-]c1ccccc1C=NCCN=Cc1ccccc1[O-].[O]=[U+2]=[O] | > 100 | > 100 | 25.9 | > 60.7 µM | 22.6 | 61.1 µM | 24.1 µM | 48.5 µM | 46.2 | > 100 | 24.3 | 57 | > 46.7 | > 67.6 |  |  | > 78.1 | 34.5 |  | 
18 | CS(=O)(=O)N(CCC#N)c1ccc(/C=C2\N=C(c3ccccc3Cl)OC2=O)cc1 |  | > 100 |  | > 100 µM |  | > 100 µM |  | > 100 µM |  | > 100 |  | > 100 |  | > 100 |  |  | > 100 |  |  | 
19 | CC[O-].CC[O-].[O-]c1ccccc1C=NC12CC3CC(CC(C3)C1)C2.[O-]c1ccccc1C=NC12CC3CC(CC(C3)C1)C2.[Ti+4] | > 100 | > 100 | > 100 | > 100 µM | 50 | > 100 µM | 53.9 µM | > 100 µM | 39.6 | > 100 | > 100 | > 100 | > 100 | > 100 |  |  | > 100 | > 100 |  | 
20 | Cc1cccc(-c2nc(=S)[nH][nH]2)c1 |  | > 100 |  | > 100 µM |  | > 100 µM |  |  |  | > 100 |  | > 100 |  | > 100 |  |  | > 100 |  |  | 
21 | CCN(Cc1ccccc1)c1ccc(/C=C2\COc3ccccc3C2=O)cc1 | 146 | > 1000 | > 1000 | > 1000 µM | 818 | > 1000 µM | 758 µM | > 1000 µM | 270 | > 1000 | > 1000 | > 1000 |  |  | 351 | > 1000 | > 1000 | > 1000 | 213 | > 1000
22 | O=C1c2ccccc2C(=O)N1C/C=N/NS(=O)(=O)c1cccc([N+](=O)[O-])c1 |  | > 100 |  | > 100 µM |  | > 100 µM |  | > 100 µM |  | > 100 |  |  |  | > 100 |  |  | > 100 |  |  | 
23 | O=C1/C(=C/c2cc(O)c(O)c(O)c2)Oc2cc(O)cc(OC3OC(CO)C(O)C(O)C3O)c21 (stereo unspecified) |  | 58.3 |  | 25.7 µM |  | 80.9 µM |  |  |  | 31.1 |  | > 100 |  |  |  |  |  |  |  | 
24 | CC1=NC2(C(=O)O)C3(C(=O)O)N=C(C)OC3(C(F)(F)F)C2(C(F)(F)F)O1 (stereo unspecified) |  | > 100 |  | > 100 µM |  | > 100 µM |  | > 100 µM |  | > 100 |  | > 100 |  | > 100 |  |  | > 100 |  |  | 
25 | [N-]=[N+]=NC1C(Cl)C(=O)NC(=O)N1[C@H]1C[C@H](O)[C@@H](CO)O1 (stereo partly specified) |  | > 100 |  | > 100 µM |  | > 100 µM |  | > 100 µM |  |  |  | > 100 |  | > 100 |  |  | > 100 |  |  | 
26 | CC(C)N1CCOC(c2ccc(O)c(O)c2)C1 (stereo unspecified) |  | > 100 |  | > 100 µM |  | > 100 µM |  | > 100 µM |  |  |  | > 100 |  | > 100 |  |  | > 100 |  |  | 
27 | O=c1cc(-c2cccc(Cl)c2)[nH]c2cc3c(cc12)OCO3 |  | > 100 | 0.565 | 75 µM and 90.9 µM | 3.37 | 3.45 µM and 13.2 µM | 0.164 µM and 0.626 µM | 75 µM and 9.8 µM |  |  |  | 3.05 |  |  |  |  | > 100 |  |  | 65.3
28 | CSC(=Nc1ccc([N+](=O)[O-])cc1C#N)NC(=O)c1ccccc1 |  | > 100 |  | > 100 µM |  | > 100 µM |  | > 100 µM |  | > 100 |  |  |  | > 100 |  |  | > 100 |  |  | 
29 | O=C1C2C3SC(c4cc5ccccc5cc43)C2C(=O)N1c1ccccc1 (stereo unspecified) |  | > 100 |  | > 100 µM |  | > 100 µM |  | 94.3 µM |  | > 100 |  | > 100 |  | > 100 |  |  | > 100 |  |  | 
30 | O=S1(=O)[C@H](c2ccccc2)c2c(-c3ccccc3)sc(-c3ccccc3)c2[C@@H]1c1ccccc1 |  | > 100 |  | > 100 µM |  | > 100 µM |  | > 100 µM |  |  |  | > 100 |  | > 100 |  |  | > 100 |  |  | 
31 | O=C(O)C1CCCN1 (stereo unspecified) |  | > 100 |  | > 100 µM |  | > 100 µM |  | > 100 µM |  | > 100 |  | > 100 |  |  |  | > 100 | > 100 |  |  | > 100
